Measured values reported in patent publication EP0609437B1, “NOVEL SPHINGOGLYCOLIPID AND USE THEREOF” (KIRIN BEER KABUSHIKI KAISHA, priority 1991, dated 1993).

How the values were obtained:
B16 mouse melanoma cells = assay: Anti-tumor activity against B16 mouse melanoma inoculated subcutaneously; type: in vivo; details: maximum tumor growth inhibition rate during the test period of 20 days, female BDF1 mice, 0.1 mg/kg intravenously on days 1, 5 and 9 after s.c. inoculation; for inhibition in vivo at 0.1 mg/kg: Mus musculus, iv, 480 h, read-out: TGIR (%)
Method: Anti-tumor activity against B16 mouse melanoma inoculated subcutaneously.
Experiment was carried out with the groups of 6 female BDF1 mice (6 weeks old) purchased from Japan SLC Inc., B16 mouse melanoma cells (1 × 10^6 cells/mouse) were inoculated subcutaneously in the rear region of mice, and the sample prepared in a concentration of 0.1 mg/kg was administered intravenously at a dose of 0.2 ml/20g/mouse after 1, 5 and 9 days from inoculation (the day of inoculation being set as 0 day). The volume of the tumor at the hypodermis of the rear region [(longer diameter × shorter diameter × height)/2] was measured on 8, 12, 16 and 20 days after inoculation, and the tumor growth inhibition rate (TGIR) of each sample was determined. TGIR was calculated from the following equation: TGIR (%) = (1 - T/C) × 100 [formula] wherein C represents a tumor volume of the control group and T represents a tumor volume of the group to which the sample was administered.
In this connection, respective test runs were divided by broken lines.

[1] = tested on: spleen cells of C57BL/6 mouse and pancreatic cells of BALB/c mouse; assay: Lymphocyte mixed culture reaction (mouse MLR), uptake of 3H-TdR; type: cell-based; details: for activity at 1 µg/mL / activity at 0.1 µg/mL / activity at 0.01 µg/mL: Mus musculus, Lymphocyte, 50 h, cultured for 42 hours, then 8 hours with 3H-TdR, read-out: Uptake of ^3H-TdR (% of control); for activity at 1 µg/mL: sample concentration 10^0 µg/ml; for Uptake of ^3H-TdR (% of control): cultured for 4 days
Method: Experiment was carried out with the spleen cells of C57BL/6 mouse which had been treated with mitomycin C (50 µg/ml, 30 min) as the stimulator and with the […] cells of BALB/c mouse as the responder. These […] cells were suspended to a concentration of 2 × 10^6 cells/ml with a culture medium of 10% FCS RPMI 1640, respectively. These cells (50 µl/well) and a sample (10 µl/well) were plated in a 96 well round-bottomed plate and cultured for 42 hours* under the condition of 37°C and 5% CO2. ^3H-thymidine (^3H-TdR) was added in a dose of 0.5 µCi/well. After 8 hours, the cells were harvested and subjected to the measurement of the uptake of ^3H-TdR by a liquid scintillation counter.
*The samples of the compounds 32, 33 and 34 were cultured for 4 days.

[2] = sample concentration 10^-1 µg/ml
[3] = sample concentration 10^-2 µg/ml

| Compound | inhibition in vivo at 0.1 mg/kg (B16 mouse melanoma cells) [%] | activity at 1 µg/mL [1] [%] | activity at 0.1 µg/mL [1, 2] [%] | activity at 0.01 µg/mL [1, 3] [%] | TGIR (%) (B16 mouse melanoma cells) | Uptake of ^3H-TdR (% of control) [1, 2] | Uptake of ^3H-TdR (% of control) [1, 3] |
| --- | --- | --- | --- | --- | --- | --- | --- |
| CCCCCCCCCCCCCCCCCCCCCC[C@@H](O)C(=O)N[C@@H](CO[C@H]1O[C@H](CO)[C@H](O)[C@H](O)[C@H]1O)[C@H](O)[C@H](O)CCCCCCCCCCCCCC [Compound 21, (2S,3S,4R)-1-(α-D-galactopyranosyloxy)-2-[(R)-2-hydroxytetracosanoylamino]-3,4-octadecanediol] | 57.9 | 304 | 149 | 142 |  |  |  |
| CCCCCCCCCCCCCCCCCCCCCCCC(=O)N[C@@H](CO[C@H]1O[C@H](CO)[C@H](O)[C@H](O)[C@H]1O)[C@H](O)[C@H](O)CCCCCCC [Compound 19, (2S,3S,4R)-1-(α-D-galactopyranosyloxy)-2-tetracosanoylamino-3,4-undecanediol] | 80.2 | 345 | 188 | 144 |  |  |  |
| CCCCCCCCCCCCCCCCCCCCCCCC[C@@H](O)C(=O)N[C@@H](CO[C@H]1O[C@H](CO)[C@H](O)[C@H](O)[C@H]1O)[C@H](O)[C@H](O)CCCCCCCCCCCCCCC [Compound 26, (2S,3S,4R)-1-(α-D-galactopyranosyloxy)-2-[(R)-2-hydroxyhexacosanoylamino]-3,4-nonadecanediol] | 72.3 | 253 | 199 | 193 |  |  |  |
| CCCCCCCCCCCCCC(=O)N[C@@H](CO[C@H]1O[C@H](CO)[C@H](O)[C@H](O)[C@H]1O)[C@@H](O)CCCCCCCCCCCCC [Compound 12, (2S,3S)-1-(α-D-galactopyranosyloxy)-2-tetradecanoylamino-3-hexadecanol] | 41.8 | 123 | 99 | 104 |  |  |  |
| CCCCCCCCCCCCCCCCCC(=O)N[C@@H](CO[C@H]1O[C@H](CO)[C@H](O)[C@H](O)[C@H]1O)[C@H](O)CCCCCCCCCCCCCCC [Compound 4, (2S,3R)-1-(α-D-galactopyranosyloxy)-2-octadecanoylamino-3-octadecanol] | 78.1 | 269 | 158 | 134 |  |  |  |
| CCCCCCCCCCCCCCCCCCCCCC[C@@H](O)C(=O)N[C@@H](CO[C@H]1O[C@H](CO)[C@H](O)[C@H](O)[C@H]1O)[C@H](O)[C@H](O)CCCCCCCCCCC [Compound 23, (2S,3S,4R)-1-(α-D-galactopyranosyloxy)-2-[(R)-2-hydroxytetracosanoylamino]-3,4-pentadecanediol] | 94.1 | 423 | 167 | 143 |  |  |  |
| CCCCCCCCCCCCC/C=C/[C@@H](O)[C@H](CO[C@H]1O[C@H](CO)[C@H](O)[C@H](O)[C@H]1O)NC(=O)CCCCCCCCCCCCCCCCC [Compound 15, (2S,3R,4E)-1-(α-D-galactopyranosyloxy)-2-octadecanoylamino-4-octadecen-3-ol] | 61.9 | 360 | 165 | 144 |  |  |  |
| (2S,3S,4R)-1-(α-D-galactopyranosyloxy)-2-[(R)-2-hydroxytricosanoylamino]-16-methyl-3,4-heptadecanediol [Compound 33] |  |  |  |  | 76.5 | 365 % of control | 422 % of control |
| CCCCCCCCCCCCCCCCCCCCCCCC(=O)N[C@@H](CO[C@H]1O[C@H](CO)[C@H](O)[C@H](O)[C@H]1O)[C@H](O)CCCCCCCCCCC [Compound 9, (2S,3R)-1-(α-D-galactopyranosyloxy)-2-tetracosanoylamino-3-tetradecanol] | 71.5 | 460 | 193 | 176 |  |  |  |
| CCCCCCCCCCCCCCC[C@@H](O)[C@H](CO[C@H]1O[C@H](CO)[C@H](O)[C@H](O)[C@H]1O)NC(=O)CCCCCCC [Compound 7, (2S,3R)-1-(α-D-galactopyranosyloxy)-2-octanoylamino-3-octadecanol] | 18.5 | 853 | 576 | 207 |  |  |  |
| CCCCCCCCCCCCCCC[C@@H](O)[C@H](CO[C@H]1O[C@H](CO)[C@H](O)[C@H](O)[C@H]1O)NC(C)=O [Compound 8, (2S,3R)-2-acetamino-1-(α-D-galactopyranosyloxy)-3-octadecanol] | 22.1 | 297 | 189 | 96 |  |  |  |
| CCCCCCCCCCCCCCCCCCCCCCCC(=O)N[C@@H](CO[C@H]1O[C@H](CO)[C@H](O)[C@H](O)[C@H]1O)[C@H](O)[C@H](O)CCCCCCCCCCCCCC [Compound 16, (2S,3S,4R)-1-(α-D-galactopyranosyloxy)-2-tetracosanoylamino-3,4-octadecanediol] | 65 | 321 | 176 | 160 |  |  |  |
| CCCCCCCCCCCCCC(=O)N[C@H](CO[C@H]1O[C@H](CO)[C@H](O)[C@H](O)[C@H]1O)[C@H](O)CCCCCCCCCCCCC [Compound 13, (2R,3R)-1-(α-D-galactopyranosyloxy)-2-tetradecanoylamino-3-hexadecanol] | 28.2 | 139 | 106 | 107 |  |  |  |
| CCCCCCCCCCCCCC(=O)N[C@@H](CO[C@H]1O[C@H](CO)[C@H](O)[C@H](O)[C@H]1O)[C@H](O)CCCCCCCCCCCCC [Compound 10, (2S,3R)-1-(α-D-galactopyranosyloxy)-2-tetradecanoylamino-3-hexadecanol] | 76.5 | 610 | 381 | 157 |  |  |  |
| CCCCCCCCCCCCCCCCCCCCCCCC(=O)N[C@@H](CO[C@H]1O[C@H](CO)[C@H](O)[C@H](O)[C@H]1O)[C@H](O)[C@H](O)CCCCCCCCCCCC(C)C [Compound 31, (2S,3S,4R)-1-(α-D-galactopyranosyloxy)-16-methyl-2-tetracosanoylamino-3,4-heptadecanediol] | 83.4 | 398 | 235 | 163 |  |  |  |
| CCCCCCCCCCCCCCCCCCCCCC[C@@H](O)C(=O)N[C@@H](CO[C@H]1O[C@H](CO)[C@H](O)[C@H](O)[C@H]1O)[C@H](O)[C@H](O)CCCCCCC [Compound 24, (2S,3S,4R)-1-(α-D-galactopyranosyloxy)-2-[(R)-2-hydroxytetracosanoylamino]-3,4-undecanediol] | 52.5 | 416 | 167 | 144 |  |  |  |
| CCCCCCCCCCCCCCCCCCCCCC[C@H](O)C(=O)N[C@@H](CO[C@H]1O[C@H](CO)[C@H](O)[C@H](O)[C@H]1O)[C@H](O)[C@H](O)CCCCCCCCCCCC(C)C [Compound 30, (2S,3S,4R)-1-(α-D-galactopyranosyloxy)-2-[(S)-2-hydroxytetracosanoylamino]-16-methyl-3,4-heptadecanediol] | 57.7 | 385 | 156 | 134 |  |  |  |
| CCCCCCCCCCCCCCCCCCCCCCCC(=O)N[C@@H](CO[C@H]1O[C@H](CO)[C@H](O)[C@H](O)[C@H]1O)[C@H](O)CCCCCCCCCCCCCCC [Compound 1, (2S,3R)-1-(α-D-galactopyranosyloxy)-2-tetracosanoylamino-3-octadecanol] | 91.4 | 359 | 151 | 136 |  |  |  |
| CCCCCCCCCCCCCCCCCCCCCCCC(=O)N[C@@H](CO[C@H]1O[C@H](CO)[C@H](O)[C@H](O)[C@H]1O)[C@H](O)[C@H](O)CCCCCCCCCCC [Compound 18, (2S,3S,4R)-1-(α-D-galactopyranosyloxy)-2-tetracosanoylamino-3,4-pentadecanediol] | 66.3 | 482 | 176 | 138 |  |  |  |
